How the values were obtained:
[1] = target: T1, LXRβ (Homo sapiens, UniProt P55055); test: Scintillation proximity assay (SPA), competition with 3H-24,25-epoxycholesterol; type: binding; settings: average Ki with respect to LXR β, read-out: Ki(b)
T1 construct: were made by cloning the appropriate full-length cDNAs into the pBacPakhis1 vector; poly-His (pBacPakhis1) (N); made in house; host or cells: Sf9 insect cells (baculovirus), crude lysate
Description: (§1) The SPA assay measures the radioactive signal generated by the binding of ^3H-24,25-epoxycholesterol to LXRα or LXRβ. The basis of the assay is the use of SPA beads containing a scintillant, such that when binding to the receptor brings the labeled ligand into proximity with the bead, the energy from the label stimulates the scintillant to emit light. The light is measured using a standard microplate scintillation reader. The ability of a ligand to bind to a receptor can be measured by assessing the degree to which the compound can compete off a radiolabelled ligand with known affinity for the receptor.
(§2) 1. Label: ^3H-24,25-epoxy-cholesterol (Amersham)
3. LXRβ lysate: Baculovirus expressed LXRβ/RXR heterodimer with RXR having a 6-HIS tag produced as a crude lysate
(§3) 4. SPA beads: Ysi copper His-tag SPA beads (Amersham)
(§4) Baculovirus expression plasmids for human RXR α (accession No NM_002957), LXR a (accession No U22662), LXR β (accession No U07132) were made by cloning the appropriate full-length cDNAs into the pBacPakhis1 vector (Clontech, CA) following standard procedures. Insertion of the cDNAs into the pBAcPakhis1 vector polylinker created an in frame fusion to the cDNA to an N-terminal poly-His tag present in pBacPakhis1. Correct cloning was confirmed by restriction mapping, and/or sequencing.
(§5) Cell lysates were prepared by infecting healthy, Sf9 insect cells at a density of approximately 1.25×10^6/ml at 27° C., in a total volume of 500 mL per 1 L sized spinner flasks, cultured under standard conditions. To prepare LXRα lysate, insect cells were co-transfected with the LXR α expression cassette at an M.O.I of 0.5 to 0.8 and with the RXR expression cassette at a M.O.I. of approximately 1.6. To prepare LXRβ lysate, insect cells were co-transfected with the LXR β expression cassette at an M.O.I of approximately 1.6 and with the RXR expression cassette at a M.O.I. of approximately 1.6. In both cases cells were incubated for 48 hours at 27° C. with constant shaking prior to harvesting.
(§6) After incubation, cells were harvested by centrifugation and pelleted. Cell pellets were resuspended in two volumes of ice-cold freshly prepared extraction buffer (20 mM Tris pH 8.0, 10 mM Imidazole, 400 mM NaCl, containing one EDTA free protease inhibitor tablet (Roche Catalog No: 1836170) per 10 ml of extraction buffer).
(§7) Cells were homogenized slowly on ice using a Douncer to achieve 80-90% cell lysis. The homogenate was centrifuged in a pre-chilled rotor (Ti50 or Ti70, or equivalent) at 45,000 rpm for 30 minutes at 4° C. Aliquots of the supernatant were frozen on dry ice and stored frozen at −80° C. until quantification and quality control. Aliquots of the lysates were tested in the SPA assay to ensure lot to lot consistency, and via SDS-PAGE analysis after purification using Ni-NTA Resin (Qiagen) and adjusted for protein concentration and expression level prior to use in screening assays.
(§8) [^3H] 24,25 Epoxycholesterol (EC) solution: For a single 384-well plate (or 400 wells), 21 μL of [^3H] EC (specific activity 76.5 Ci/mmol, concentration 3.2 mCi/mL) was added to 4.4 mL of 2×SPA buffer to provide for a final concentration of 200 nM. For each additional 384-well plate, an additional 19.1 μL of [^3H] EC was added to 4.0 mL of additional 2×SPA buffer. The final concentration of [^3H] EC in the well was 50 nM.
LXRβ lysate (prepared as above) was diluted with protein lysate dilution buffer. 1400 μL of diluted LXRβ lysate was prepared per 384-well plate, ([…]) and 1120 μL of diluted LXRβ lysate was prepared for each additional 384-well plate.
(§9) SPA bead solution: For a 384-well plate (or 400 wells), 3.75 mL of 2×SPA buffer w/o EDTA, 2.25 mL of H2O, and 1.5 mL of Ysi His-tag SPA beads (vortex well before taking) were mixed together. For each additional 384-well plate, an additional 3.5 mL of 2×SPA buffer w/o EDTA, 2.1 mL of H2O, and 1.4 mL of Ysi His-tag SPA beads were mixed together. […]

[2] = target: T2, LXRα (Homo sapiens, UniProt Q13133); test: as above; type: binding; settings: average Ki with respect to LXR α
T2 construct: were made by cloning the appropriate full-length cDNAs into the pBacPakhis1 vector; poly-His (pBacPakhis1) (N); made in house; host or cells: Sf9 insect cells (baculovirus), crude lysate
Description: as §1, §2
2. LXRα lysate: Baculovirus expressed LXRα/RXR heterodimer with RXR having a 6-HIS tag produced as a crude lysate
as §3, §4, §5, §6, §7, §8
LXRα lysate (prepared as above) was diluted with protein lysate dilution buffer. 1400 μL of diluted LXRα lysate was prepared per 384-well plate, (or 200 wells) and 1120 μL of diluted LXRα lysate was prepared for each additional 384-well plate.
as §9

T1 sequence (P19793 whole entry): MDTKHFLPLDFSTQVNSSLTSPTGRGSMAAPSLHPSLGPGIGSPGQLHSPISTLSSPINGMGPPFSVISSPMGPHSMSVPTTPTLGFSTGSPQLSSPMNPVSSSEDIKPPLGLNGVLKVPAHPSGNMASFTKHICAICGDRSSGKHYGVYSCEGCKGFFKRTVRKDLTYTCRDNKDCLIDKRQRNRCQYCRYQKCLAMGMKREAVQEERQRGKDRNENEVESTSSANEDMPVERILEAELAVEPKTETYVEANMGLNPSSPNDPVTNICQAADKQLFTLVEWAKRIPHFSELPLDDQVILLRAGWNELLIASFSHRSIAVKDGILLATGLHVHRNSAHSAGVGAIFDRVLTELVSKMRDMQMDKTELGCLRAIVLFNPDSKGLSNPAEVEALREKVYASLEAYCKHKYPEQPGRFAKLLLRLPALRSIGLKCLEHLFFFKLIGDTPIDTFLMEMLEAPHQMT
T1 sequence (P55055 whole entry): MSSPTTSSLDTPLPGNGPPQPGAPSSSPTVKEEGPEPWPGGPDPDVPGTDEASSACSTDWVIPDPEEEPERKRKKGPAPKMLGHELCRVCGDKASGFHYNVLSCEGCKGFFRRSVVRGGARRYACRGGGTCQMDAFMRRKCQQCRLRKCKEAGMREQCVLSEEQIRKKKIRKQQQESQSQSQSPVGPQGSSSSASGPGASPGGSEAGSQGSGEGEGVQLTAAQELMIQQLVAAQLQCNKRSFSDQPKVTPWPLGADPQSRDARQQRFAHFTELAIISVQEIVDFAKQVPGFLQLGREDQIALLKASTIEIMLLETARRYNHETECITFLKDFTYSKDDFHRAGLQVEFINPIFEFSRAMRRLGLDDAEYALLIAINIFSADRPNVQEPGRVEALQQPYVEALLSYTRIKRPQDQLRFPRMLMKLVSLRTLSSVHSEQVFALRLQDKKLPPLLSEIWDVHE
T2 sequence (Q13133 whole entry): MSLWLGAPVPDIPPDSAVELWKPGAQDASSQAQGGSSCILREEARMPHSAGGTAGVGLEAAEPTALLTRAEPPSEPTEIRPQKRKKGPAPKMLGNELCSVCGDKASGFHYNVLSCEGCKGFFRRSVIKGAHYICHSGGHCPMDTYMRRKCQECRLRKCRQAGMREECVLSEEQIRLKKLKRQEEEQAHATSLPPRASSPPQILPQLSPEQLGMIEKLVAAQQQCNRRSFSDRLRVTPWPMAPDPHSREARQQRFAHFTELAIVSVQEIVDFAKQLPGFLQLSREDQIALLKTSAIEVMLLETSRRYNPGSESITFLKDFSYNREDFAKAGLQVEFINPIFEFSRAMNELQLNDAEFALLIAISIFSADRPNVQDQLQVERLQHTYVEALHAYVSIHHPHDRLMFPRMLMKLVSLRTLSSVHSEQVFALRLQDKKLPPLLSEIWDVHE
T2 sequence (P19793 whole entry, further chain): as the sequence (P19793 whole entry) above

Structure (SMILES)	Ki [1]	Ki [2]
Nc1ccc(-c2coc(-c3cc4cccc(Cl)c4c(=O)n3Cc3ccc(F)cc3F)c2)cc1C(F)(F)F [3-[4-(4-amino-3-trifluoromethylphenyl)furan-2-yl]-8-chloro-2-(2,4-difluorobenzyl)-2H-isoquinolin-1-one]	10 to 150 nM	10 to 150 nM
Cc1ccc(Cn2c(C#CC(C)(C)O)cc3ccccc3c2=O)c(C)c1 [2-(2,4-dimethylbenzyl)-3-(3-hydroxy-3-methylbut-1-ynyl)-2H-isoquinolin-1-one]	> 500 nM	> 500 nM
CCOc1ccc(-c2csc(-c3cc4cccc(Cl)c4c(=O)n3Cc3ccc(F)cc3F)c2)cc1Cl [8-chloro-3-[4-(3-chloro-4-ethoxyphenyl)thiophen-2-yl]-2-(2,4-difluorobenzyl)-2H-isoquinolin-1-one]	150 to 500 nM	> 500 nM
Cc1cccc(-c2cc3ccccc3c(=O)n2Cc2ccc(C)cc2C)c1 [2-(2,4-dimethylbenzyl)-3-m-tolyl-2H-isoquinolin-1-one]	10 to 150 nM	150 to 500 nM
O=c1c2c(Cl)cccc2cc(-c2cc(-c3cc(C(F)(F)F)cc(C(F)(F)F)c3)co2)n1Cc1ccc(F)cc1F [3-[4-(3,5-bis-trifluoromethylphenyl)furan-2-yl]-8-chloro-2-(2,4-difluorobenzyl)-2H-isoquinolin-1-one]	10 to 150 nM	150 to 500 nM
Cc1ccc(Cn2c(-c3ccsc3)cc3ccccc3c2=O)c(C)c1 [2-(2,4-dimethylbenzyl)-3-thiophen-3-yl-2H-isoquinolin-1-one]	150 to 500 nM	> 500 nM

The next lines start with the values.

Ki [1]	Ki [2]	Structure (SMILES)
10 to 150 nM	10 to 150 nM	O=c1c2c(Cl)cccc2cc(-c2ccc(Oc3cnccn3)cc2)n1Cc1ccc(F)cc1F [8-chloro-2-(2,4-difluorobenzyl)-3-[4-(pyrazin-2-yloxy)phenyl]-2H-isoquinolin-1-one]
10 to 150 nM	10 to 150 nM	Cc1ccc(Cn2c(-c3ccc(Oc4ccccc4)cc3)cc3ccccc3c2=O)c(C)c1 [2-(2,4-dimethylbenzyl)-3-(4-phenoxyphenyl)-2H-isoquinolin-1-one]
> 500 nM	> 500 nM	Cc1cccc(-c2cc3ccccc3c(=O)n2Cc2ccccc2)c1 [2-benzyl-3-m-tolyl-2H-isoquinolin-1-one]
10 to 150 nM	10 to 150 nM	O=c1c2c(Cl)cccc2cc(-c2ccc(Oc3ccccc3)cc2)n1Cc1ccc(F)cc1F [8-chloro-2-(2,4-difluorobenzyl)-3-(4-phenoxyphenyl)-2H-isoquinolin-1-one]
10 to 150 nM	10 to 150 nM	CS(=O)(=O)c1ccc(-c2ccc(-c3cc4cccc(Cl)c4c(=O)n3Cc3ccc(F)cc3F)s2)cc1 [8-chloro-2-(2,4-difluorobenzyl)-3-[5-(4-methanesulfonylphenyl)thiophen-2-yl]-2H-isoquinolin-1-one]
10 to 150 nM	10 to 150 nM	O=c1c2c(Cl)cccc2cc(-c2ccc(Oc3ccccc3)cc2)n1Cc1cccs1 [8-chloro-3-(4-phenoxyphenyl)-2-thiophen-2-ylmethyl-2H-isoquinolin-1-one]
10 to 150 nM	10 to 150 nM	O=c1c2c(Cl)cccc2cc(-c2ccc(Oc3ccccc3)cc2)n1CC1CCCCC1 [8-chloro-2-cyclohexylmethyl-3-(4-phenoxyphenyl)-2H-isoquinolin-1-one]
10 to 150 nM	10 to 150 nM	Cc1ccc(Cn2c(-c3ccc(Oc4ccccc4)cc3)cc3cccc(C)c3c2=O)cc1 [8-methyl-2-(4-methylbenzyl)-3-(4-phenoxyphenyl)-2H-isoquinolin-1-one]
